ChEMBL document CHEMBL5137080, “Discovery of Novel 7-Hydroxy-5-oxo-4,5-dihydrothieno[3,2-b]pyridine-6-carboxamide Derivatives with Potent and Selective Antifungal Activity against Cryptococcus Species” (J Med Chem, 2022)
≈ marks a conversion by molar mass, not a printed value.

What was measured:
Candida albicans = test: Antifungal activity against Candida albicans SC5314 assessed as fungal growth inhibition incubated for 48 hrs by broth microdilution method; format: functional
Aspergillus fumigatus = test: Antifungal activity against Aspergillus fumigatus 7544 assessed as fungal growth inhibition incubated for 48 hrs by broth microdilution method; format: functional
Cryptococcus neoformans = test: Antifungal activity against Cryptococcus neoformans H99 assessed as fungal growth inhibition incubated for 72 hrs by broth microdilution method; format: functional
[1] = Cytotoxicity against human HUVEC cells assessed as inhibition on cell growth incubated for 24 hrs by CCK-8 assay; format: toxicity, cell-based
[2] = Cytotoxicity against human HUVEC cells assessed as cell viability at 256 ug/ml incubated for 24 hrs by CCK-8 assay; format: toxicity, cell-based; settings: at 256 µg/mL, read-out: Activity
[3] = Hemolytic activity in rabbit RBC at 64 ug/ml incubated for 1 hr by spectrophotometry; format: toxicity, cell-based, Oryctolagus cuniculus, Erythrocyte; settings: red blood cells, at 64 µg/mL, read-out: Activity
[4] = Hemolytic activity in rabbit RBC at 16 ug/ml incubated for 1 hr by spectrophotometry; format: toxicity, cell-based, Oryctolagus cuniculus, Erythrocyte; settings: red blood cells, at 16 µg/mL, read-out: Activity
[5] = Cytotoxicity against human Caco-2 cells assessed as cell viability at 64 ug/ml incubated for 24 hrs by CCK-8 assay; format: toxicity, cell-based; settings: at 64 µg/mL, read-out: Activity
[6] = Hemolytic activity in rabbit RBC at 32 ug/ml incubated for 1 hr by spectrophotometry; format: toxicity, cell-based, Oryctolagus cuniculus, Erythrocyte; settings: red blood cells, at 32 µg/mL, read-out: Activity
[7] = Cytotoxicity against human Caco-2 cells assessed as cell viability at 256 ug/ml incubated for 24 hrs by CCK-8 assay; format: toxicity, cell-based; settings: at 256 µg/mL, read-out: Activity
[8] = Cytotoxicity against human HUVEC cells assessed as cell viability at 64 ug/ml incubated for 24 hrs by CCK-8 assay; format: toxicity, cell-based; settings: at 64 µg/mL, read-out: Activity

Row | SMILES | MIC (Candida albicans) | MIC (Aspergillus fumigatus) | MIC (Cryptococcus neoformans) | IC50 at 24 h [1] | also measured
1 | O=C(NCc1ccc(Cl)cc1)c1c(O)c2sccc2n(Cc2ccccc2)c1=O | > 64 µg/mL | > 64 µg/mL | 1 µg/mL (≈ 2.35 µM) | – | –
2 | CC1CCN(CCNC(=O)c2c(O)c3sccc3n(Cc3ccccc3)c2=O)CC1 | 32 µg/mL (≈ 75.2 µM) | 32 µg/mL (≈ 75.2 µM) | 32 µg/mL (≈ 75.2 µM) | – | –
3 | CCCNC(=O)c1c(O)c2sccc2n(Cc2ccccc2)c1=O | > 64 µg/mL | > 64 µg/mL | 2 µg/mL (≈ 5.84 µM) | > 64 µg/mL | –
4 | O=C(NCc1ccncc1)c1c(O)c2sccc2n(Cc2ccccc2)c1=O | 64 µg/mL (≈ 163 µM) | 8 µg/mL (≈ 20.4 µM) | 2 µg/mL (≈ 5.11 µM) | – | –
5 | C#CCNC(=O)c1c(O)c2sccc2n(Cc2ccccc2)c1=O | > 64 µg/mL | > 64 µg/mL | 16 µg/mL (≈ 47.3 µM) | > 64 µg/mL | –
6 | CC(C)NC(=O)c1c(O)c2sccc2n(Cc2ccccc2)c1=O | > 64 µg/mL | > 64 µg/mL | 2 µg/mL (≈ 5.84 µM) | > 64 µg/mL | –
7 | O=C(NCc1cc(F)cc(F)c1)c1c(O)c2sccc2n(Cc2ccccc2)c1=O | > 64 µg/mL | > 64 µg/mL | 2 µg/mL (≈ 4.69 µM) | – | –
8 | O=C(NCC1CCCO1)c1c(O)c2sccc2n(Cc2ccccc2)c1=O (stereo not drawn) | 32 µg/mL (≈ 83.2 µM) | 16 µg/mL (≈ 41.6 µM) | 4 µg/mL (≈ 10.4 µM) | – | –
9 | O=C(Nc1ccccc1)c1c(O)c2sccc2n(Cc2ccccc2)c1=O | > 64 µg/mL | > 64 µg/mL | > 64 µg/mL | – | –
10 | COc1cccc(CNC(=O)c2c(O)c3sccc3n(Cc3ccccc3)c2=O)c1 | > 64 µg/mL | > 64 µg/mL | 2 µg/mL (≈ 4.76 µM) | – | –
11 | CCC(C)NC(=O)c1c(O)c2sccc2n(Cc2ccccc2)c1=O (stereo not drawn) | > 64 µg/mL | 64 µg/mL (≈ 180 µM) | 4 µg/mL (≈ 11.2 µM) | – | –
12 | O=C(NCCc1cccs1)c1c(O)c2sccc2n(Cc2ccccc2)c1=O | > 64 µg/mL | > 64 µg/mL | 2 µg/mL (≈ 4.87 µM) | – | –
13 | O=C(NCC1CC1)c1c(O)c2sccc2n(Cc2ccccc2)c1=O | > 64 µg/mL | > 64 µg/mL | 1 µg/mL (≈ 2.82 µM) | – | –
14 | CC(NC(=O)c1c(O)c2sccc2n(Cc2ccccc2)c1=O)c1ccc(F)cc1 (stereo not drawn) | > 64 µg/mL | > 64 µg/mL | 2 µg/mL (≈ 4.73 µM) | – | –
15 | Cc1ccccc1CNC(=O)c1c(O)c2sccc2n(Cc2ccccc2)c1=O | > 64 µg/mL | > 64 µg/mL | 2 µg/mL (≈ 4.94 µM) | – | –
16 | O=C(NCc1ccccc1F)c1c(O)c2sccc2n(Cc2ccccc2)c1=O | > 64 µg/mL | > 64 µg/mL | 2 µg/mL (≈ 4.9 µM) | – | –
17 | CCOCCNC(=O)c1c(O)c2sccc2n(Cc2ccccc2)c1=O | > 64 µg/mL | 16 µg/mL (≈ 43 µM) | 0.5 µg/mL (≈ 1.34 µM) | 8 µg/mL (≈ 21.5 µM) | –
18 | CCCCCCNC(=O)c1c(O)c2sccc2n(Cc2ccccc2)c1=O | > 64 µg/mL | > 64 µg/mL | 0.5 µg/mL (≈ 1.3 µM) | > 64 µg/mL | –
19 | CC(C)CNC(=O)c1c(O)c2sccc2n(Cc2ccccc2)c1=O | > 64 µg/mL | > 64 µg/mL | 16 µg/mL (≈ 44.9 µM) | – | –
20 | O=C(NCCc1ccccc1)c1c(O)c2sccc2n(Cc2ccccc2)c1=O | > 64 µg/mL | > 64 µg/mL | 4 µg/mL (≈ 9.89 µM) | – | –
21 | COc1ccc(CNC(=O)c2c(O)c3sccc3n(Cc3ccccc3)c2=O)cc1 | > 64 µg/mL | > 64 µg/mL | 2 µg/mL (≈ 4.76 µM) | – | –
22 | CN(C)c1ccc(CNC(=O)c2c(O)c3sccc3n(Cc3ccccc3)c2=O)cc1 | > 64 µg/mL | > 64 µg/mL | 4 µg/mL (≈ 9.23 µM) | – | –
23 | O=C(NC1CCCCC1)c1c(O)c2sccc2n(Cc2ccccc2)c1=O | > 64 µg/mL | > 64 µg/mL | 8 µg/mL (≈ 20.9 µM) | > 64 µg/mL | –

Row | SMILES | MIC (Candida albicans) | MIC (Aspergillus fumigatus) | MIC (Cryptococcus neoformans) | IC50 at 24 h [1] | also measured
24 | O=C(NCCO)c1c(O)c2sccc2n(Cc2ccccc2)c1=O | > 64 µg/mL | 32 µg/mL (≈ 92.9 µM) | 8 µg/mL (≈ 23.2 µM) | 64 µg/mL (≈ 186 µM) | –
25 | O=C(NN1CCCCC1)c1c(O)c2sccc2n(Cc2ccccc2)c1=O | > 64 µg/mL | > 64 µg/mL | 16 µg/mL (≈ 41.7 µM) | > 64 µg/mL | –
26 | Cc1ccc(CNC(=O)c2c(O)c3sccc3n(Cc3ccccc3)c2=O)cc1C | > 64 µg/mL | > 64 µg/mL | 2 µg/mL (≈ 4.78 µM) | – | –
27 | O=C(NCCc1c[nH]c2ccccc12)c1c(O)c2sccc2n(Cc2ccccc2)c1=O | > 64 µg/mL | > 64 µg/mL | 8 µg/mL (≈ 18 µM) | – | –
28 | O=C(NC1CCCC1)c1c(O)c2sccc2n(Cc2ccccc2)c1=O | > 64 µg/mL | > 64 µg/mL | 4 µg/mL (≈ 10.9 µM) | > 64 µg/mL | –
29 | C[C@@H]1[C@H](O)[C@@H](C)/C=C/C=C/C=C/C=C/C=C/C=C/C=C/[C@H](O[C@@H]2O[C@H](C)[C@@H](O)[C@H](N)[C@@H]2O)C[C@@H]2O[C@](O)(C[C@@H](O)C[C@@H](O)[C@H](O)CC[C@@H](O)C[C@@H](O)CC(=O)O[C@H]1C)C[C@H](O)[C@H]2C(=O)O [AMPHOTERICIN B] | 0.125 µg/mL (≈ 0.135 µM) | 2 µg/mL (≈ 2.16 µM) | 1 µg/mL (≈ 1.08 µM) | 16 µg/mL (≈ 17.3 µM) | viability at 24 h, 256 ug/ml [2]: 13.7%; hemolysis at 1 h, 64 ug/ml [3]: 100%; hemolysis at 1 h, 16 ug/ml [4]: 8.06%; viability at 24 h, 64 ug/ml [5]: 64.8%; hemolysis at 1 h, 32 ug/ml [6]: > 95%; viability at 24 h, 256 ug/ml [7]: 28.7%; viability at 24 h, 64 ug/ml [8]: 68.2%
30 | COCCNC(=O)c1c(O)c2sccc2n(Cc2ccccc2)c1=O | > 64 µg/mL | 32 µg/mL (≈ 89.3 µM) | 2 µg/mL (≈ 5.58 µM) | 16 µg/mL (≈ 44.6 µM) | –
31 | O=C(NCc1cccc(Cl)c1)c1c(O)c2sccc2n(Cc2ccccc2)c1=O | > 64 µg/mL | > 64 µg/mL | 2 µg/mL (≈ 4.71 µM) | – | –
32 | O=C(NCc1ccc(F)cc1F)c1c(O)c2sccc2n(Cc2ccccc2)c1=O | > 64 µg/mL | > 64 µg/mL | 2 µg/mL (≈ 4.69 µM) | – | –
33 | CSc1ccc(CNC(=O)c2c(O)c3sccc3n(Cc3ccccc3)c2=O)cc1 | > 64 µg/mL | > 64 µg/mL | 2 µg/mL (≈ 4.58 µM) | – | –
34 | O=C(NCc1ccccn1)c1c(O)c2sccc2n(Cc2ccccc2)c1=O | > 64 µg/mL | 16 µg/mL (≈ 40.9 µM) | 2 µg/mL (≈ 5.11 µM) | – | –
35 | O=C(NCc1ccc(F)cc1)c1c(O)c2sccc2n(Cc2ccccc2)c1=O | > 64 µg/mL | > 64 µg/mL | 4 µg/mL (≈ 9.79 µM) | – | –
36 | Cc1ccc(CNC(=O)c2c(O)c3sccc3n(Cc3ccccc3)c2=O)o1 | > 64 µg/mL | > 64 µg/mL | 2 µg/mL (≈ 5.07 µM) | – | –
37 | O=C(NN1CCOCC1)c1c(O)c2sccc2n(Cc2ccccc2)c1=O | > 64 µg/mL | > 64 µg/mL | > 64 µg/mL | > 64 µg/mL | –
38 | O=C(NCCCCO)c1c(O)c2sccc2n(Cc2ccccc2)c1=O | > 64 µg/mL | 32 µg/mL (≈ 85.9 µM) | 2 µg/mL (≈ 5.37 µM) | 16 µg/mL (≈ 43 µM) | –
39 | C=CCCNC(=O)c1c(O)c2sccc2n(Cc2ccccc2)c1=O | > 64 µg/mL | > 64 µg/mL | 0.25 µg/mL (≈ 0.705 µM) | > 64 µg/mL | –
40 | O=C(NCCCO)c1c(O)c2sccc2n(Cc2ccccc2)c1=O | > 64 µg/mL | 32 µg/mL (≈ 89.3 µM) | 4 µg/mL (≈ 11.2 µM) | 64 µg/mL (≈ 179 µM) | –
41 | O=C(NCc1ccccc1Cl)c1c(O)c2sccc2n(Cc2ccccc2)c1=O | > 64 µg/mL | > 64 µg/mL | 2 µg/mL (≈ 4.71 µM) | – | –
42 | CCCCCNC(=O)c1c(O)c2sccc2n(Cc2ccccc2)c1=O | > 64 µg/mL | > 64 µg/mL | 0.5 µg/mL (≈ 1.35 µM) | > 64 µg/mL | –
43 | O=C(NCCN1CCOCC1)c1c(O)c2sccc2n(Cc2ccccc2)c1=O | 32 µg/mL (≈ 77.4 µM) | 64 µg/mL (≈ 155 µM) | 8 µg/mL (≈ 19.3 µM) | – | –
44 | O=C(NCc1cccs1)c1c(O)c2sccc2n(Cc2ccccc2)c1=O | > 64 µg/mL | > 64 µg/mL | 2 µg/mL (≈ 5.04 µM) | – | –
45 | CC(NC(=O)c1c(O)c2sccc2n(Cc2ccccc2)c1=O)c1ccccc1 (stereo not drawn) | > 64 µg/mL | > 64 µg/mL | 4 µg/mL (≈ 9.89 µM) | – | –
